Results as given in patent US20240382461A1, “PHARMACEUTICAL COMPOSITION AND METHOD FOR PREVENTION AND TREATMENT OF HEARING LOSS” (PHARMAZZ, INC., priority 2023, published 2024).
“Also recorded” adds a separate entry of the source. Numbered stars: 1 amine (or outer) side, 2 acyl side, 3 side chain; on linkers, the order of the positions; unused ones are H or OH. Ends that are not written are not given here. Suc = O=C(CCC(=O)[*:2])[*:1]

What was measured:
[1] = system: ETB receptors; test: Ki of sovateltide for ETB receptors (literature); assay type: binding; details: ratio of Ki values
[2] = system: noise-induced hearing loss; test: Noise-induced hearing loss in mice, intra-tympanic injection, auditory brainstem response (ABR); assay type: in vivo, mouse; details: after noise exposure
Text: (§1) The study aimed to determine whether Sovateltide (IRL-1620, PMZ-1620); an endothelin-B receptor agonist has otoprotective efficacy and that Sovateltide can ameliorate noise- or aminoglycoside-induced hearing loss in a mouse model system. Animals received either unilateral intra-tympanic Sovateltide at one of two dose concentrations or vehicle control injection. The study conducted unilateral auditory brainstem response (ABR) hearing tests at baseline and again at least 14 days after noise or aminoglycoside exposure as the primary measurement. A gross anatomical examination of treated middle ears was also conducted at necropsy.
(§2) FIG. 4 describes the study design where male and female mice were divided into seven groups, each with ten mice. Groups 1-3 were treated with 112-decibel noise to induce cochlear trauma, whereas groups 4-6 were treated with kanamycin+frusomide to induce aminoglycoside-induced cochlear trauma, and group 7 was kept as the control. In addition, Sovateltide in two different doses was administered in groups 1, 2, 4, and 5, while the vehicle, phosphate-buffered saline, was administered in groups 3, 6, and 7. The auditory brainstem response (ABR) test was performed at baseline and day 14 after noise or aminoglycoside exposure.
[Male & female C57Bl/6 mice used in this study were obtained from Charles River Labs. All study animals (n=69) underwent anesthesia via 87.5 mg/kg (Ketamine)/12.5 mg/kg (Xylazine) IP injection and baseline unilateral left ear ABR testing at 8, 16, and 32 kHz.
Study animals in Groups 1-6 (n=59) underwent cochlear trauma, either via noise (112 dB SPL, 8-16 kHz band, 2-hr duration) exposure while awake, with the goal of producing a moderate chronic hearing loss in all animals or a single injection of subcutaneous kanamycin and intraperitoneal furosemide on Day 0. The noise treatment typically produced moderate hearing losses in the range of 20-50 dB and scattered losses of outer hair cells but little, if any, loss of inner hair cells. […]

[3] = system: aminoglycoside-induced hearing loss; test: Kanamycin/furosemide (aminoglycoside)-induced hearing loss in mice, intra-tympanic injection, ABR; assay type: in vivo, mouse; details: after kanamycin/furosemide (K/F) exposure; 5 and 15 ug/kg intra-tympanic; 8, 16 and 32 kHz
Text: as §1, §2
[Male & female C57Bl/6 mice used in this study were obtained from Charles River Labs. […]

[4] = system: adult mouse cochlear cells; test: Cultured adult mouse cochlear cells, JC 1 dye mitochondrial membrane potential, confocal imaging; assay type: cell-based; details: 1 ng/ml for 7 days
Procedure: Inner ears comprising cochlear neuroepithelium from adult mice were dissected after anesthetizing with urethane 1.5 g/kg body weight and euthanizing with cervical dislocation. Inner ears were placed in cold saline, and the cochlea was dissected under the dissection microscope. The isolated cochlea was placed in a cold saline solution and chopped finely in a sterile condition inside a culture hood. Minced tissues were transferred to a 15 ml falcon tube and centrifuged at 1000 RPM for 2 min. The supernatant was discarded, and the pellet was submersed in 1× Trypsin EDTA solution (Cat No. R-001-100, GIBCO, MA) and triturated using a 1 ml pipette and cut-tip. The triturated tissue was incubated at 37° C. for 20 min. After 20 min, the digested tissues were vortexed gently and checked for proper digestion of the tissues. The digestion step was repeated by adding the same volume of 1× trypsin EDTA solution and incubating for 10 minutes. After a satisfactory level of digestion, the tissue solution was filtered with a sieve of pore size 40 μm to isolate cell suspension and remove undigested tissues. The cell suspension was collected in a 15 ml falcon tube, and 1 ml of serum-containing cell culture media was added and mixed properly to stop further digestion. The cochlear cell solution was centrifuged at 2000 RPM for 3 min at RT. The cell pellet was resuspended in 8 ml of 10% fetal bovine serum containing culture media and plated in 60 mm tissue culture-treated plastic plates (Alkali Scientific Inc. Fort Lauderdale, FL). The Neurobasal culture media supplemented with B-27 (Gibco, Waltham, MA) was used for culturing cochlear cells. […]
Sovateltide treatment—The cultured mouse cochlear cells were treated with 1 ng/ml sovateltide for 7 days in 2 different conditions—1) Serum-free media and 2) Serum containing media. […] Fluorescence confocal microscopy imaging was done on live cells. […]
JC-1 is a novel cationic carbocyanine dye that accumulates in mitochondria. The dye exists as a monomer at low concentrations and yields green fluorescence, similar to fluorescein. […]

[5] = biological target: T1, ETA receptors (Sus scrofa, UniProt Q29010); details: cited from earlier work
T1 sequence (Q29010 21-427): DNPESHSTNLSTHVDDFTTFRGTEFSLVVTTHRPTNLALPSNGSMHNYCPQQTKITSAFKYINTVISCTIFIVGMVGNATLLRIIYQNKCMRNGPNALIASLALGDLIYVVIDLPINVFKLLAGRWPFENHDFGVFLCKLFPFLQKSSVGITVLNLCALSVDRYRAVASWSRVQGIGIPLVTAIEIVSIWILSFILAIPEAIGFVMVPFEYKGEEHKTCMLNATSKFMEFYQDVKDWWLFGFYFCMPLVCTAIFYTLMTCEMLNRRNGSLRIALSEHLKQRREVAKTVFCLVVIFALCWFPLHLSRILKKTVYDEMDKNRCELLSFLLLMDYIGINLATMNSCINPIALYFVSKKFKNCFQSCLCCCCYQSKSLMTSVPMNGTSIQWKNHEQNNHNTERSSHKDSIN

[6] = biological target: ETB receptors; details: cited from earlier work
[7] = system: ETB and vascular endothelial growth factor (VEGF) in the cerebrovasculature; details: administration on post-natal day 21; rat brain; cited from earlier work

## synthetic analog of ET-1, ETB receptor agonist; Suc-Asp-Glu-Glu-Ala-Val-Tyr-Phe-Ala-His-Leu-Asp-Ile-Ile-Trp; CAS #142569-99-1 (Suc-DEEAVYFAHLDIIW) [Sovateltide, N-Succinyl-[Glu9, Ala11,15] endothelin 1]
[1]
  selectivity for ETB over ETA receptors: ~120,000 times
[2]; 5 ug/kg intra-tympanic, p=0.2513
  ABR threshold shift at 8 kHz versus vehicle: trend of lower threshold shift
[2]; 15 ug/kg intra-tympanic, p=0.0834
  ABR threshold shift at 8 kHz versus vehicle: trend of lower threshold shift; also recorded: nearly significant effect
[2]; 5 and 15 ug/kg intra-tympanic, 8, 16 and 32 kHz
  ABR threshold shift from baseline to Day 14 versus vehicle: not significantly different; also recorded: did not produce statistically reliable differences
[3]
  ABR threshold shift from baseline to Day 14 versus vehicle: not significantly different; also recorded: did not produce statistically reliable differences; also recorded: did not have any discernible impact
[4]; serum containing media
  mitochondrial protection (JC 1 mitochondrial membrane potential) versus saline control: reduction in compromised mitochondrial protection
[4]; serum-free media
  mitochondrial protection (JC 1 mitochondrial membrane potential) versus saline control: more mitochondrial protection than control
[4]; serum-free media, listed as sovateltide
  mitochondrial protection (JC 1 mitochondrial membrane potential) versus saline control: notable improvement in mitochondrial protection and improved cellular viability
[5]
  Ki: 1900 nM
[6]
  Ki: 0.016 nM
[7]
  ETB and VEGF expression in the cerebrovasculature: significant increase
